Like-named read-outs stand apart in the source and are kept apart here.

The results in this text go back to patent US12649751B2 (Arcus Biosciences, Inc., priority 2022, dated 2026).

The subject of assay [1] is p-SLP-76 (Ser376) in Jurkat cells. Briefly: pSLP76 Cellular Assay (AlphaLISA SureFire Ultra p-SLP-76 (Ser376), anti-CD3 activated Jurkat cells). Type of assay: cell-based. To be noted: Homo sapiens, read-out: Cellular Potency. The gist of the method:
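Jurkat cells, serum-starved overnight in Opti-MEM then in HBSS, preincubated 1 h at 37 °C with 22-point 2-fold compound dilutions, then stimulated with anti-CD3 (0.025 mg/ml added solution) for 45 min. Lysate p-SLP-76 (Ser376) measured by AlphaLISA at 570 nm; IC50 from 4-parameter logistic fit.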
For orientation: Alpha assays give light when donor and acceptor beads are brought close together.

A further assay has as its target HPK1 (Homo sapiens, UniProt Q92918). The assay can be described thus: HPK1 Biochemical Assay (ADP-Glo luminescence; low ATP 10 μM or high ATP 200 μM). (In ADP-Glo the light output rises with the ADP produced.)
[2] abbreviates: pSLP76 (Ser376) AlphaLISA, anti-CD3 activated Jurkat cells.
Setting [3] is: HPK1 ADP-Glo assay, high ATP (200 μM ATP, 5 nM HPK1), read-out: Biochemical Potency (high ATP).
The mark [4] stands for this setting: HPK1 ADP-Glo assay, low ATP (10 μM ATP, 2 nM HPK1), read-out: Biochemical Potency (low ATP).
Setting [5] is: Jurkat cells, anti-CD3 stimulation, pSLP76.
Where [6] appears, read: 2 nM HPK1, 10 μM ATP, read-out: Biochemical Potency (low ATP).

HPK1, sequence (Q92918 whole entry, species assumed): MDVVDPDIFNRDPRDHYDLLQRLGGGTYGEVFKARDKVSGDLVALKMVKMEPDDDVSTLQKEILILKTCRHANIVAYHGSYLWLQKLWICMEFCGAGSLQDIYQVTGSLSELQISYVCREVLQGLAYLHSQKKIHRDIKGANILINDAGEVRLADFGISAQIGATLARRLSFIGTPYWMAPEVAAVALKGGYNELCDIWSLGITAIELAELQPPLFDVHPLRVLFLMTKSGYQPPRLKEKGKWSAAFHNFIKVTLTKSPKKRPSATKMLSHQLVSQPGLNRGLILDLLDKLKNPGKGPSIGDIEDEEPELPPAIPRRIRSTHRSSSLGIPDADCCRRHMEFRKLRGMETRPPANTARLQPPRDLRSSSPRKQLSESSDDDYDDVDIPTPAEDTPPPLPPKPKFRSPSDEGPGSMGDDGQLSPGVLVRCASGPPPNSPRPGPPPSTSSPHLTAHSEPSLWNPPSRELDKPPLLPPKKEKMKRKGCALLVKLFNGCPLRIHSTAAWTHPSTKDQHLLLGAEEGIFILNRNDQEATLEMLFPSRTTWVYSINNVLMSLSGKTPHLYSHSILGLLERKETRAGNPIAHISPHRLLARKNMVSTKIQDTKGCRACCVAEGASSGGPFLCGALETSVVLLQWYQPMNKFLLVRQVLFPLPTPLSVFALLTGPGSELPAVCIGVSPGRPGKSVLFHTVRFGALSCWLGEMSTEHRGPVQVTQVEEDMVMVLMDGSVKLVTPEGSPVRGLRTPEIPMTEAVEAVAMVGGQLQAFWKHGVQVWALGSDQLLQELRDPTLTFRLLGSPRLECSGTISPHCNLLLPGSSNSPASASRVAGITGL

For the compound `Cc1cc(Nc2cc3nc(-c4cccc(C(=O)N(C)C)c4)sc3cn2)nc(N2C[C@@H]3C[C@H]2CN3CCOC(C)C)n1` [Example 492], the IC50 was 100 to 1000 nM in assay [1] (setting [2]) and less than 100 nM on HPK1 (setting [3]).

Take `Cc1cc(Nc2cc3nc(-c4ncccc4C)sc3cn2)nc(N2C[C@@H]3C[C@H]2CN3)n1` [Example 407]: the IC50 (in assay [1] (setting [2]); on HPK1 (setting [3]); at HPK1 (setting [4])) was less than 100 nM each time.

Turning to `Cc1ccc(Nc2cc3nc(-c4ncccc4C)sc3cn2)nc1CN1CCC[C@H]1C` [Example 44, 5-Methyl-N-[2-(3-methylpyridin-2-yl)-[1,3]thiazolo[5,4-c]pyridin-6-yl]-6-{[(2R)-2-methylpyrrolidin-1-yl]methyl}pyridin-2-amine], the values for the IC50 (in assay [1] (setting [5]); at HPK1 (setting [6])) were more than 5000 nM and less than 100 nM, respectively.

With `Cc1ccc(Nc2cc3nc(-n4cccn4)sc3cn2)nc1CN1CCCC1` [Example 200, 5-Methyl-N-[2-(1H-pyrazol-1-yl)-[1,3]thiazolo[5,4-c]pyridin-6-yl]-6-[(pyrrolidin-1-yl)methyl]pyridin-2-amine], the IC50 in assay [1] (setting [5]) was 1000 to 5000 nM; at HPK1 (setting [6]), less than 100 nM.

As for `Cc1ccnn1-c1nc2cc(Nc3ccc(N4CCOCC4)c(CN4CCCC4)n3)ncc2s1` [Example 194, N-[2-(5-Methyl-1H-pyrazol-1-yl)-[1,3]thiazolo[5,4-c]pyridin-6-yl]-5-(morpholin-4-yl)-6-[(pyrrolidin-1-yl)methyl]pyridin-2-amine], the IC50 (in assay [1] (setting [5]); at HPK1 (setting [6])) was less than 100 nM in each case.

As for `Cc1cc(Nc2cc3nc(-c4ccnc(CC5CC5)c4)sc3cn2)nc(N2C[C@@H]3C[C@H]2CN3CCO)n1` [Example 308, 2-[(1S,4S)-5-(4-{2-[2-(cyclopropylmethyl)-4-pyridyl]-3-thia-1,5-diaza-6-indenylamino}-6-methyl-2-pyrimidinyl)-2,5-diazabicyclo[2.2.1]hept-2-yl]ethanol], the IC50 (in assay [1] (setting [2]); at HPK1 (setting [3])) was less than 100 nM in each case.

On to `Cc1cccc(F)c1-c1nc2cc(Nc3ccc(N4CCOCC4)c(CN(C)C)n3)ncc2s1` [Example 14, 6-[(Dimethylamino)methyl]-N-[2-(2-fluoro-6-methylphenyl)-[1,3]thiazolo[5,4-c]pyridin-6-yl]-5-(morpholin-4-yl)pyridin-2-amine], for which the IC50 is 100 to 1000 nM in assay [1] (setting [5]) and less than 100 nM on HPK1 (setting [6]).

As to `c1cc(Nc2cc3nc(-n4cccn4)sc3cn2)nc(N2C[C@@H]3C[C@H]2CN3)c1` [Example 82, 6-[(1S,4S)-2,5-Diazabicyclo[2.2.1]heptan-2-yl]-N-[2-(1H-pyrazol-1-yl)-[1,3]thiazolo[5,4-c]pyridin-6-yl]pyridin-2-amine], the IC50 (in assay [1] (setting [5]); on HPK1 (setting [6])) was less than 100 nM each time.

Turning to `Cc1cccnc1-c1nc2cc(Nc3ccc(Cl)c(CN4CCCC4)n3)ncc2s1` [Example 60], the IC50 in assay [1] (setting [5]) is more than 5000 nM; at HPK1 (setting [6]) it was less than 100 nM.

For `CCN1C[C@@H]2C[C@H]1CN2c1nc(C)cc(Nc2cc3nc(-c4cccc(C(=O)NC5CCOC5)c4)sc3cn2)n1` (stereo partly shown) [Example 556], the IC50 (in assay [1] (setting [2]); at HPK1 (setting [3])) was less than 100 nM each time.

For the compound `Cc1cccnc1-c1nc2cc(Nc3cccc(N4CCN5CCC[C@@H]5C4)n3)ncc2s1` [Example 114, 6-[(8aR)—Octahydropyrrolo[1,2-a]pyrazin-2-yl]-N-[2-(3-methylpyridin-2-yl)-[1,3]thiazolo[5,4-c]pyridin-6-yl]pyridin-2-amine], the IC50 was more than 5000 nM in assay [1] (setting [5]) and less than 100 nM on HPK1 (setting [6]).

Consider `Cc1cc(Nc2cc3nc(-c4cccc(C(=O)N(C)C)c4)sc3cn2)nc(N2C[C@@H]3C[C@H]2CN3CC2CC2)n1` [Example 382], for which the values for the IC50 (in assay [1] (setting [2]); on HPK1 (setting [3])) were 100 to 1000 nM and less than 100 nM, respectively.

As for `Cc1cccnc1-c1nc2cc(Nc3cc(C(F)(F)F)cc(N4C[C@@H]5C[C@H]4CN5C)n3)ncc2s1` [Example 323], the results for the IC50 (in assay [1] (setting [2]); on HPK1 (setting [3]); at HPK1 (setting [4])) were 100 to 1000 nM, less than 100 nM and less than 100 nM, respectively.

As for `Cc1cccnc1-c1nc2cc(Nc3cccc(N4C[C@@H]5C[C@H]4CN5C(C)C)n3)ncc2s1` [Example 116, N-[2-(3-Methylpyridin-2-yl)-[1,3]thiazolo[5,4-c]pyridin-6-yl]-6-[(1S,4S)-5-(propan-2-yl)-2,5-diazabicyclo[2.2.1]heptan-2-yl]pyridin-2-amine], the IC50 in assay [1] (setting [5]) was 1000 to 5000 nM; on HPK1 (setting [6]), less than 100 nM.

As to `Cc1cc(Nc2cc3nc(-c4cccc(C(=O)N(C)C)c4)sc3cn2)nc(N2C[C@@H]3C[C@H]2CN3Cc2cccnc2)n1` [Example 497], the results for the IC50 (in assay [1] (setting [2]); at HPK1 (setting [3])) were 100 to 1000 nM and less than 100 nM, respectively.

For `Cc1cccnc1-c1nc2cc(Nc3cc(C4CC4)nc(N4C[C@@H]5C[C@H]4CN5C)n3)ncc2s1` [Example 436], the results for the IC50 (in assay [1] (setting [2]); at HPK1 (setting [3])) were 100 to 1000 nM and less than 100 nM, respectively.

For the compound `CC(=O)N(C)CCN1C[C@@H]2C[C@H]1CN2c1nc(C)cc(Nc2cc3nc(-c4cccc(C(=O)N(C)C)c4)sc3cn2)n1` [Example 495], the IC50 is 100 to 1000 nM in assay [1] (setting [2]) and less than 100 nM at HPK1 (setting [3]).

For `Cc1cc(Nc2cc3nc(-c4cccc(C5(O)CCC5)c4)sc3cn2)nc(N2C[C@@H]3C[C@H]2CN3C)n1` [Example 402], the IC50 in assay [1] (setting [2]) is 100 to 1000 nM; on HPK1 (setting [3]) it was less than 100 nM.

For the compound `Cc1cccc(F)c1-c1nc2cc(Nc3ccc(N4CCOCC4)c(CN4CCCC4)n3)ncc2s1` [Example 16, N-[2-(2-Fluoro-6-methylphenyl)-[1,3]thiazolo[5,4-c]pyridin-6-yl]-5-(morpholin-4-yl)-6-[(pyrrolidin-1-yl)methyl]pyridin-2-amine], the IC50 in assay [1] (setting [5]) was 1000 to 5000 nM; at HPK1 (setting [6]), less than 100 nM.

For the compound `Cc1cc(Nc2cc3nc(-c4cccc(C(=O)N(C)C)c4)sc3cn2)nc(N2C[C@@H]3C[C@H]2CN3CCOCCO)n1` [Example 502], the IC50 is 100 to 1000 nM in assay [1] (setting [2]) and less than 100 nM on HPK1 (setting [3]).

As for `CN1C[C@@H]2C[C@H]1CN2c1cccc(Nc2cc3nc(-c4cccc(C(N)=O)c4)sc3cn2)n1` [Example 128, 3-[6-({6-[(1S,4S)-5-Methyl-2,5-diazabicyclo[2.2.1]heptan-2-yl]pyridin-2-yl}amino)-[1,3]thiazolo[5,4-c]pyridin-2-yl]benzamide], the figures for the IC50 (in assay [1] (setting [5]); on HPK1 (setting [6])) were 100 to 1000 nM and less than 100 nM, respectively.

Turning to `Cc1cccnc1-c1nc2cc(Nc3ccc([C@@H]4CCOC4)c(CN4CCCC4)n3)ncc2s1` (single isomer, unassigned) [Example 259, N-[2-(3-Methylpyridin-2-yl)-[1,3]thiazolo[5,4-c]pyridin-6-yl]-5-[(3R or 3S)-oxolan-3-yl]-6-[(pyrrolidin-1-yl)methyl]pyridin-2-amine], the IC50 in assay [1] (setting [5]) is 100 to 1000 nM; on HPK1 (setting [6]), less than 100 nM.

For `CNS(=O)(=O)c1cccc(-c2nc3cc(Nc4cncc(N5C[C@@H]6C[C@H]5CN6C)n4)ncc3s2)c1` [Example 290, N-methyl-3-[6-({6-[(1S,4S)-5-methyl-2,5-diazabicyclo[2.2.1]heptan-2-yl]pyrazin-2-yl}amino)-[1,3]thiazolo[5,4-c]pyridin-2-yl]benzene-1-sulfonamide], the IC50 in assay [1] (setting [5]) was 100 to 1000 nM; on HPK1 (setting [6]), less than 100 nM.

Consider `Cc1cc(Nc2cc3nc(-c4cncc(N5CCOC[C@H]5C)c4)sc3cn2)nc(N2C[C@@H]3C[C@H]2CN3CCO)n1` [Example 476], for which the IC50 (in assay [1] (setting [2]); at HPK1 (setting [3])) was less than 100 nM in each case.

With `Cc1cccnc1-c1nc2cc(Nc3cc(C(C)(C)O)nc(N4C[C@@H]5C[C@H]4CN5C)n3)ncc2s1` [Example 304, 2-{2-[(1S,4S)-5-methyl-2,5-diazabicyclo[2.2.1]heptan-2-yl]-6-{[2-(3-methylpyridin-2-yl)-[1,3]thiazolo[5,4-c]pyridin-6-yl]amino}pyrimidin-4-yl}propan-2-ol], the IC50 in assay [1] (setting [2]) is 100 to 1000 nM; on HPK1 (setting [3]), less than 100 nM.

For the compound `CCN1C[C@@H]2C[C@H]1CN2c1nc(Nc2cc3nc(-c4cnn(C)c4)sc3cn2)ccc1F` [Example 322], the IC50 in assay [1] (setting [2]) was 100 to 1000 nM; on HPK1 (setting [3]), less than 100 nM.

For the compound `CCN(CC)S(=O)(=O)c1cc(C)cc(-c2nc3cc(Nc4cc(C)nc(N5C[C@@H]6C[C@H]5CN6CCO)n4)ncc3s2)c1` [Example 343], the figures for the IC50 (in assay [1] (setting [2]); at HPK1 (setting [3])) were 1000 to 5000 nM and less than 100 nM, respectively.

Regarding `Cc1cccnc1-c1nc2cc(Nc3ccc(C)c(N4CCC[C@H](N)C4)n3)ncc2s1` [Example 71, 6-[(3S)-3-Aminopiperidin-1-yl]-5-methyl-N-[2-(3-methylpyridin-2-yl)-[1,3]thiazolo[5,4-c]pyridin-6-yl]pyridin-2-amine], the IC50 was 1000 to 5000 nM in assay [1] (setting [5]) and less than 100 nM at HPK1 (setting [6]).

As for `Cc1cc(C(=O)N(C)C)cc(-c2nc3cc(Nc4cc(C)cc(N5C[C@@H]6C[C@H]5CN6CCO)n4)ncc3s2)c1` [Example 347], the IC50 (in assay [1] (setting [2]); on HPK1 (setting [3])) was less than 100 nM throughout.

For the compound `Cc1cccnc1-c1nc2cc(Nc3ccc(C4CCOCC4)c(CN4CC[C@H](F)C4)n3)ncc2s1` [Example 214, 6-{[(3S)-3-Fluoropyrrolidin-1-yl]methyl}-N-[2-(3-methylpyridin-2-yl)-[1,3]thiazolo[5,4-c]pyridin-6-yl]-5-(oxan-4-yl)pyridin-2-amine], the IC50 in assay [1] (setting [5]) is 100 to 1000 nM; at HPK1 (setting [6]), less than 100 nM.

Take `Cc1ccnn1-c1nc2cc(Nc3ccc(N4CCC(F)(F)C4)c(C(C)(C)N)n3)ncc2s1` [Example 273, 6-(2-Aminopropan-2-yl)-5-(3,3-difluoropyrrolidin-1-yl)-N-[2-(5-methyl-1H-pyrazol-1-yl)-[1,3]thiazolo[5,4-c]pyridin-6-yl]pyridin-2-amine]: the IC50 is 100 to 1000 nM in assay [1] (setting [5]) and less than 100 nM at HPK1 (setting [6]).
